This note sets out measurements from patent publication US10053468B2, “Heterocyclic compound” (TAKEDA PHARMACEUTICAL COMPANY LIMITED, priority 2013, dated 2018).

The target of experiment [1] is T1, RORγt (Homo sapiens, UniProt P51449).
T1 sequence (P51449 1-497 isoform P51449-2): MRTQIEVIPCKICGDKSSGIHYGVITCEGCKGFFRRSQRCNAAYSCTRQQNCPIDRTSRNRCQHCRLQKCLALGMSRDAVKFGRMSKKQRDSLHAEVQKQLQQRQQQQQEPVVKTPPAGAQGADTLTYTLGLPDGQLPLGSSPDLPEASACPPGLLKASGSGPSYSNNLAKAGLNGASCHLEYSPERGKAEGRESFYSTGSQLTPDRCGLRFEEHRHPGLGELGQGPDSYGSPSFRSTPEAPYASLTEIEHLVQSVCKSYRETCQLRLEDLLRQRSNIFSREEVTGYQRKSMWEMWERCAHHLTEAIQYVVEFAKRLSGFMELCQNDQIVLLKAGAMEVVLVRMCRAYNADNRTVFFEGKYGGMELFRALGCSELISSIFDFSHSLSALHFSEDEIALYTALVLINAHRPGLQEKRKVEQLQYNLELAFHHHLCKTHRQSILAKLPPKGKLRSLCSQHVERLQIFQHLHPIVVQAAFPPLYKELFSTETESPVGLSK
The experiment in a line: RORγt binding test using fluorescent-labeled synthetic ligand (TR-FRET). To be noted: read-out: Binding inhibitory rate of fluorescent-labeled synthetic ligand to RORγt at test compound 1 μM (%). A digest of the protocol:
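His-tagged RORγt (diluted to 240 nM) with compound, then fluorescent synthetic ligand (diluted to 12 μM), 20 min at room temperature, followed by Tb anti-His antibody (diluted to 8 nM), 20 min.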

Experiment [2] has as its target T1, RORγt. As to the kind of experiment: Cofactor recruitment test (Alpha Screen, biotinylated SRC-1 peptide). The experiment is classed as biochemical. To be noted: read-out: Signal value inhibitory rate at test compound 1 μM (%). Here is the method:
Cofactor Recruitment Test
Cofactor recruitment test was performed by Alpha Screen (Histidine Detection Kit, PerkinElmer) method. First, a test compound was diluted with an assay buffer (50 mM Tris-HCl (pH 7.5), 50 mM KCl, 1 mM DTT, 0.1% BSA) and added to a 384 well plate by 5 μL. […] The mixture was stood in a dark place for 1 hr, and the signal value was measured by Envision (PerkinElmer).

Experiment [3] deals with T1, RORγt. The experiment in a line: RORγt binding test using fluorescent-labeled cholesterol (TR-FRET). To be noted: read-out: Binding inhibitory rate of fluorescent-labeled cholesterol to RORγt at test compound 1 μM (%). The method in brief: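 After 20 min at room temperature with His-tagged RORγt and BODIPY-cholesterol in pH 7.5 Tris buffer (NaCl, DTT, BSA), compound wells got terbium anti-His antibody for another 20 min. Time-resolved FRET was read with excitation 320 nm, emission 520 nm and a 100 µs delay.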

Experiment [4] addresses T1, RORγt. As to the kind of experiment: Jurkat reporter test (human IL-17 ROR response element luciferase, RORγt vector). The experiment is classed as cell-based. To be noted: read-out: Luminescence level inhibitory rate at test compound 3 μM (%). The method in brief: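 Luminescence (Bright-Glo, 10 min, RT) was measured after overnight compound treatment of electroporated Jurkat cells (1350 V, 10 ms interval, 3 pulses). The reaction medium was RPMI with 10% lipid-reduced FCS, 10 mM HEPES (pH 7.5) and 5 μM lovastatin.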

Setting [5] is: test compound 3 μM, Jurkat cells.

The structures appear in SMILES notation. Like-named read-outs stand apart in the source and are kept apart here.

With `COc1ccc2c(n1)CCN(C(=O)Cc1cc(O)no1)C2C(=O)Nc1ccc(C(C)(C)C)c(F)c1` (stereo not drawn) [Example 41, N-(4-tert-butyl-3-fluorophenyl)-6-((3-hydroxy-1,2-oxazol-5-yl)acetyl)-2-methoxy-5,6,7,8-tetrahydro-1,6-naphthyridine-5-carboxamide], the inhibition at 1 µM worked out at 102% on RORγt [1], 74.9% on RORγt [2] and 102% at RORγt [3]. The inhibition at 3 µM at RORγt [4] (setting [5]) stood at 98.9%.

For the compound `COc1ccc2c(c1)CCN(C(=O)Cc1cc(O)no1)[C@H]2C(=O)Nc1cc(F)c(C(C)(C)COCC2CC2)c(F)c1` [Example 157, (1R)-N-(4-(1-(cyclopropylmethoxy)-2-methylpropan-2-yl)-3,5-difluorophenyl)-2-((3-hydroxy-1,2-oxazol-5-yl)acetyl)-6-methoxy-1,2,3,4-tetrahydroisoquinoline-1-carboxamide], the values for the inhibition at 1 µM at RORγt [1], on RORγt [2] and on RORγt [3] were 102%, 74% and 99%, respectively. Besides, the inhibition at 3 µM on RORγt [4] (setting [5]) was 94%.

For `COc1ccc2c(c1)CCN(C(=O)Cc1cc(O)no1)[C@H]2C(=O)Nc1cc(F)c(C(C)(C)COCC(F)F)c(F)c1` [Example 159, (1R)-N-(4-(1-(2,2-difluoroethoxy)-2-methylpropan-2-yl)-3,5-difluorophenyl)-2-((3-hydroxy-1,2-oxazol-5-yl)acetyl)-6-methoxy-1,2,3,4-tetrahydroisoquinoline-1-carboxamide], the inhibition at 1 µM at RORγt [1] stood at 101%; on RORγt [2] it was 80%; on RORγt [3], 100%. In addition, the inhibition at 3 µM on RORγt [4] (setting [5]) came to 97%.

As for `COCc1ccc2c(c1)CCN(C(=O)c1cc(O)no1)[C@H]2C(=O)Nc1cc(F)c(C(C)(C)COC)c(F)c1` [Example 137, (1R)-N-(3,5-difluoro-4-(1-methoxy-2-methylpropan-2-yl)phenyl)-2-((3-hydroxy-1,2-oxazol-5-yl)carbonyl)-6-(methoxymethyl)-1,2,3,4-tetrahydroisoquinoline-1-carboxamide], the inhibition at 1 µM on RORγt [1] turned out to be 102%; at RORγt [2], 98%; at RORγt [3] it was 102%. The inhibition at 3 µM at RORγt [4] (setting [5]) amounted to 103%.

As for `CCOc1ccc2c(c1)CCN(C(=O)Cc1cc(O)no1)[C@H]2C(=O)Nc1cc(F)c(C(C)(C)COCCOC)c(F)c1` [Example 143, (1R)-N-(3,5-difluoro-4-(1-(2-methoxyethoxy)-2-methylpropan-2-yl)phenyl)-6-ethoxy-2-((3-hydroxy-1,2-oxazol-5-yl)acetyl)-1,2,3,4-tetrahydroisoquinoline-1-carboxamide], the inhibition at 1 µM at RORγt [1] amounted to 101%; on RORγt [2], 56%; on RORγt [3], 101%. Further, the inhibition at 3 µM on RORγt [4] (setting [5]) turned out to be 83%.

In the case of `COCc1ccc2c(c1)CCN(C(=O)c1cc(O)no1)[C@H]2C(=O)Nc1cc(F)c([Si](C)(C)C)c(F)c1` [Example 131, (1R)-N-(3,5-difluoro-4-(trimethylsilyl)phenyl)-2-((3-hydroxy-1,2-oxazol-5-yl)carbonyl)-6-(methoxymethyl)-1,2,3,4-tetrahydroisoquinoline-1-carboxamide], the inhibition at 1 µM on RORγt [1] turned out to be 101%; at RORγt [2] it was 100%; on RORγt [3], 103%. Also, the inhibition at 3 µM on RORγt [4] (Jurkat) is 103%.

Turning to `COc1ccc2c(n1)CCN(C(=O)c1cc(O)no1)[C@H]2C(=O)Nc1ccc([Si](C)(C)C)c(F)c1` [Example 79, (5R)-N-(3-fluoro-4-(trimethylsilyl)phenyl)-6-((3-hydroxy-1,2-oxazol-5-yl)carbonyl)-2-methoxy-5,6,7,8-tetrahydro-1,6-naphthyridine-5-carboxamide], the inhibition at 1 µM worked out at 102% on RORγt [1], 97% on RORγt [2] and 102% at RORγt [3]. Also, on RORγt [4] (Jurkat), the inhibition at 3 µM came to 102%.

Take `COCc1ccc2c(c1)CCN(C(=O)Cc1cc(O)no1)[C@H]2C(=O)Nc1ccc(C(C)(C)C)c(F)c1` [Example 132, (1R)-N-(4-tert-butyl-3-fluorophenyl)-2-((3-hydroxy-1,2-oxazol-5-yl)acetyl)-6-(methoxymethyl)-1,2,3,4-tetrahydroisoquinoline-1-carboxamide]: the inhibition at 1 µM at RORγt [1] turned out to be 102%; on RORγt [2], 98%; on RORγt [3] it was 100%. Besides, the inhibition at 3 µM at RORγt [4] (setting [5]) stood at 104%.

Consider `CCOCC(C)(C)c1c(F)cc(NC(=O)[C@H]2c3ccc(OC)cc3CCN2C(=O)CCCC(=O)O)cc1F` [Example 172, 5-((1R)-1-((4-(1-ethoxy-2-methylpropan-2-yl)-3,5-difluorophenyl)carbamoyl)-6-methoxy-3,4-dihydroisoquinolin-2(1H)-yl)-5-oxopentanoic acid], for which the inhibition at 1 µM at RORγt [1] came out at 101%; on RORγt [2] it was 82%; at RORγt [3], 101%. The inhibition at 3 µM at RORγt [4] (setting [5]) amounted to 97%.

Take `COc1ccc2c(c1)CCN(C(=O)CC(F)(F)F)[C@H]2C(=O)Nc1cc(F)c(C(C)(C)C(=O)N2CCCC2)c(F)c1` [Example 104, (1R)-N-(3,5-difluoro-4-(2-methyl-1-oxo-1-(pyrrolidin-1-yl)propan-2-yl)phenyl)-6-methoxy-2-(3,3,3-trifluoropropanoyl)-1,2,3,4-tetrahydroisoquinoline-1-carboxamide]: the inhibition at 1 µM was found to be 101% on RORγt [1], 101% on RORγt [2] and 102% on RORγt [3]. At RORγt [4] (setting [5]), the inhibition at 3 µM worked out at 102%.

With `COCC(C)(C)c1ccc(NC(=O)[C@H]2c3ccc(OC)cc3CCN2C(=O)Cc2cc(O)no2)cc1F` [Example 70, (1R)-N-(3-fluoro-4-(1-methoxy-2-methylpropan-2-yl)phenyl)-2-((3-hydroxy-1,2-oxazol-5-yl)acetyl)-6-methoxy-1,2,3,4-tetrahydroisoquinoline-1-carboxamide], the inhibition at 1 µM at RORγt [1] was 102%; on RORγt [2] it was 82%; on RORγt [3] it was 102%. For the same compound, on RORγt [4] (setting [5]), the inhibition at 3 µM is 99%.

Consider `COc1ccc2c(c1)CCN(C(=O)Cc1cc(O)no1)[C@H]2C(=O)Nc1cc(F)c(C(C)(C)C)c(F)c1` [Example 43, (1R)-N-(4-tert-butyl-3,5-difluorophenyl)-2-((3-hydroxy-1,2-oxazol-5-yl)acetyl)-6-methoxy-1,2,3,4-tetrahydroisoquinoline-1-carboxamide], for which the inhibition at 1 µM on RORγt [1] was determined as 102%; at RORγt [2] it was 88.3%; on RORγt [3] it was 102%. Further, at RORγt [4] (setting [5]), the inhibition at 3 µM is 101%.

For the compound `CCOc1ccc2c(c1)CCN(C(=O)Cc1cc(O)no1)[C@H]2C(=O)Nc1cc(F)c2c(c1)CCC2(C)C` [Example 66, (1R)-6-ethoxy-N-(7-fluoro-1,1-dimethyl-2,3-dihydro-1H-inden-5-yl)-2-((3-hydroxy-1,2-oxazol-5-yl)acetyl)-1,2,3,4-tetrahydroisoquinoline-1-carboxamide], the inhibition at 1 µM stood at 102% on RORγt [1], 82% on RORγt [2] and 102% on RORγt [3]. Besides, the inhibition at 3 µM on RORγt [4] (setting [5]) turned out to be 99.5%.

For `COc1ccc2c(c1)CCN(C(=O)CC#N)[C@H]2C(=O)Nc1cc(F)c(C(C)(C)C(=O)N2CCCC2)c(F)c1` [Example 103, (1R)-2-(cyanoacetyl)-N-(3,5-difluoro-4-(2-methyl-1-oxo-1-(pyrrolidin-1-yl)propan-2-yl)phenyl)-6-methoxy-1,2,3,4-tetrahydroisoquinoline-1-carboxamide], the inhibition at 1 µM on RORγt [1] worked out at 101%; at RORγt [2], 101%; at RORγt [3], 104%. In addition, the inhibition at 3 µM at RORγt [4] (setting [5]) came to 102%.

As for `COCC(C)(C)c1c(F)cc(NC(=O)[C@H]2c3ccc(OC)cc3CCN2C(=O)c2cc(O)no2)cc1F` [Example 97, (1R)-N-(3,5-difluoro-4-(1-methoxy-2-methylpropan-2-yl)phenyl)-2-((3-hydroxy-1,2-oxazol-5-yl)carbonyl)-6-methoxy-1,2,3,4-tetrahydroisoquinoline-1-carboxamide], the inhibition at 1 µM is 101% at RORγt [1], 96% on RORγt [2] and 102% at RORγt [3]. For the same compound, on RORγt [4] (setting [5]), the inhibition at 3 µM was 102%.
